According to PubChem BioAssay (NCI):
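Values below derive from 48-hour exposures of cells grown in 96-well plates, with endpoints linearly interpolated between the two concentrations bracketing the appropriate inhibition level. GI50 = concentration required for 50% inhibition of growth. At the TGI there is no net growth.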

Key:
Experiment in all cases: DTP human tumour cell line panel, 48 h
[1] = tested on: CAKI-1 renal
[2] = tested on: COLO 205 colon
[3] = tested on: HCC-2998 colon
[4] = tested on: HCT-116 colon
[5] = tested on: HL-60(TB) leukemia
[6] = tested on: HOP-62 NSCLC
[7] = tested on: M14 melanoma
[8] = tested on: SF-295 CNS
[9] = tested on: SF-539 CNS
[10] = tested on: SK-MEL-28 melanoma

Compound	GI50 [1] [µM]	TGI [1] [µM]	GI50 [2] [µM]	TGI [2] [µM]	GI50 [3] [µM]	TGI [3] [µM]	GI50 [4] [µM]	TGI [4] [µM]	GI50 [5] [µM]	TGI [5] [µM]	GI50 [6] [µM]	TGI [6] [µM]	GI50 [7] [µM]	TGI [7] [µM]	GI50 [8] [µM]	TGI [8] [µM]	GI50 [9] [µM]	TGI [9] [µM]	GI50 [10] [µM]	TGI [10] [µM]
O=C(Cc1ccc(Nc2ccnc(C(F)(F)F)c2)cc1)N/N=C/c1ccccc1O	1.35	13	4.33	22.8	1.16	10.8	1.92	> 39.6	1.9	5.44	3.08	> 48.6	1.82	19.5	2.72	38	2.44	12.2	3.89	61.4
Cc1cc2c(cc1C)[n+](=O)c(C(=O)CC(=O)C(=O)Nc1ccccc1C(C)C)c(C)n2[O-]	–	> 100	–	> 100	–	> 100	–	> 100	–	> 100	–	> 100	–	> 100	–	> 100	–	> 100	–	> 100
O=C(O)CCC1CCc2cccc(OCC(=O)O)c2C1=O (stereo not given)	–	> 100	–	> 100	–	> 100	–	> 100	–	> 100	–	> 100	–	> 100	–	> 100	–	> 100	–	> 100
NC(=N\N=C/c1ccc(Cl)cc1Cl)/C(N)=N\N=C/c1ccc(Cl)cc1Cl	16.3	> 100	46.2	> 100	> 94.7	> 100	1.19	> 100	> 100	> 100	15.1	38.7	> 83.1	> 100	2.84	89.8	8.3	> 100	> 100	> 100
CN(CSc1ccc(Cl)cc1)c1ccc(CSc2ccc(Cl)cc2)cc1	2.32	8.64	3.59	13.6	4.81	18.3	3.06	11.9	1.57	32	13.6	29.9	4.09	14.9	2.86	13.7	2.35	6.48	5.55	19.6
O=C(Cc1ccccc1)NN1C(=O)C(Cl)C1c1cccc([N+](=O)[O-])c1 (stereo not given)	–	> 63.8	–	> 100	–	> 100	–	> 84.2	–	29.5	–	> 100	–	> 100	–	> 100	–	> 100	–	> 100
O=C1c2cccnc2C(=O)c2c1c(C(=O)OCCc1ccccn1)c1ccccn21	0.039	11.3	1.45	3.16	0.12	2.08	0.019	0.318	0.783	5.93	< 0.01	0.326	0.0262	0.33	0.342	1.77	0.0334	0.432	0.0749	1.55
CCC1c2cc3n(c(=O)c2COC1O)Cc1c-3nc2ccccc2c1Cl (stereo not given)	–	> 100	–	> 100	–	> 100	–	> 100	–	> 100	–	> 100	–	> 75	–	> 100	–	> 100	–	> 100
NC(=S)N/N=C(\CCC(=O)Nc1ccccc1[N+](=O)[O-])CC(=O)c1ccco1	–	> 100	–	> 100	–	> 100	–	> 100	–	> 100	–	> 100	–	> 100	–	> 100	–	> 100	–	> 100
CCN1C(=O)N(CC)C2C1NC(=S)N2/N=C/C=C/c1ccccc1OC (stereo not given)	0.0514	> 100	0.0315	0.7	0.0343	16.2	< 0.0182	> 55.9	0.0264	0.0722	0.0463	> 100	< 0.0184	> 100	0.0306	> 100	0.0228	0.0771	16.1	> 100
COc1ncc(-c2ccc3nccc(C#CCN4CCN(S(C)(=O)=O)CC4)c3c2)cc1NS(=O)(=O)c1ccc(F)cc1F	0.173	13.4	0.0418	1.18	0.0635	1.25	0.178	1.87	0.0257	1.81	< 0.0159	5.56	0.0855	2.38	0.0684	1.17	0.0398	0.272	0.0256	0.843
N#C/C(=C\c1ccc(F)cc1)n1nc2cccc(F)c2n1	5.17	> 100	4.16	> 100	7.14	> 100	3.57	> 100	2.69	7.68	3.54	> 100	3.27	> 100	3.53	> 100	3.14	11.1	5.8	> 100
O=C(NS(=O)(=O)c1ccc(NC[C@H]2COCCO2)c([N+](=O)[O-])c1)c1ccc(N2CCN(CC3=C(c4ccc(Cl)cc4)CC4(CCC4)CC3)CC2)cc1Oc1cnc2[nH]ccc2c1	1.8	5.11	1.85	3.4	1.78	3.23	2.69	12.5	1.6	4.83	1.79	3.71	2.11	4.99	1.66	4.08	1.88	4.03	1.58	3.39
NC(=O)CCc1ccccc1Oc1nccc(-c2c(-c3ccc(F)cc3)ncn2C2CCNCC2)n1	> 25	> 25	> 25	> 25	> 25	> 25	> 25	> 25	> 25	> 25	> 25	> 25	> 25	> 25	> 25	> 25	> 25	> 25	> 25	> 25
CCN(CC)CC(O)COc1c(Br)c(Br)c(Br)c2c1OC(C)(C)C2 (stereo not given)	6.8	23.8	1.98	5.14	3.42	9.23	3.85	> 100	1.73	3.53	4.03	19.7	2.01	4.12	1.1	2.71	4.34	16.4	1.62	3.24
CCCCN(CC)CCCCCCCCCCN1CCCc2cc(OC)ccc21	2.13	7.47	1.6	3.25	2.32	6.38	1.73	3.63	2.07	5	2.69	10.2	2.11	4.99	1.8	3.72	3.32	9.35	2.92	7.33
Cc1ccc(NC(=O)/C(=N\NC(N)=S)C(C#N)c2ccccc2C)cc1C (stereo not given)	–	> 100	–	> 100	–	> 100	–	> 100	–	> 100	–	> 100	–	> 100	–	> 100	–	> 100	–	> 100
CC(C)OCc1cc(CN2CCN(c3cccc(Cl)c3)CC2)c(O)c2ncccc12	0.223	11	5.94	19.2	0.92	11.3	0.425	3.79	0.388	2.84	0.431	6.54	–	–	1.07	11.6	0.471	3.48	0.997	14.5
O=C(N/C=C/C=C/Sc1ccccc1)OCc1ccccc1	–	37.2	–	31.6	–	42.8	–	38.1	–	> 100	–	49.2	–	32.9	–	35.4	–	30.4	–	34.3
N#CC(/C(=N/NC(N)=S)C(=O)Nc1cccc(Cl)c1)c1ccccc1 (stereo not given)	–	> 100	–	> 100	–	> 100	–	> 100	–	> 100	–	> 100	–	> 100	–	> 100	–	> 100	–	> 100
O=C(c1cccs1)c1nc2cc(Cl)ccc2[n+]([O-])c1C(F)(F)F	> 100	> 100	> 100	> 100	87.4	> 100	23.2	> 100	> 100	> 100	> 100	> 100	> 100	> 100	91.3	> 100	> 100	> 100	> 100	> 100
COc1ccc(/C=C/C(=O)c2ccc(Nc3nc(Nc4ccc(F)cc4)nc(Nc4ccc(Cl)cc4)n3)cc2)cc1	69.6	> 100	24.2	> 100	> 100	> 100	39.9	> 100	84	> 100	> 100	> 100	> 100	> 100	> 100	> 100	2.23	19	> 100	> 100
CCC(C)(C)[C@H](NC(=O)[C@H]1CCCCN1C)C(=O)N(C)[C@H](C[C@@H](OC(C)=O)c1nc(C(=O)N[C@@H](Cc2ccccc2)C[C@H](C)C(=O)O)cs1)C(C)C	< 0.00167	> 16.7	< 0.00167	0.00277	< 0.00167	> 16.7	< 0.00167	> 16.7	< 0.00167	< 0.00167	< 0.00167	> 16.7	–	–	< 0.00167	–	< 0.00167	< 0.00167	–	–
C/C(=N/NC(=S)N1CC2CCC(CC2)C1)c1cnccn1	–	11.3	–	10.9	–	13.6	–	12.3	–	3.18	–	14.9	–	1.85	–	12.1	–	15.6	–	22.4
Brc1ccc(Nc2nc3ccccc3nc2Nc2ccc(Br)cc2)cc1	0.714	6.61	1.84	3.35	1.66	7.7	0.418	1.65	2.09	5.96	1.43	4.12	–	–	1.44	4.22	1.51	3.56	2.18	6.87
O=C1/C(=C\c2ccccc2)CN(C(=O)c2ccccc2)C/C1=C\c1ccccc1	2.74	11.1	2.72	7.01	1.89	3.48	0.321	1.1	4.29	52.7	3.21	10.7	2.1	4.79	–	–	2.27	6.24	1.82	3.47
Cc1cc(C(O)(c2ccc(Nc3ccccc3)cc2)c2ccc(Nc3ccc(S(=O)(=O)O)cc3)cc2)ccc1N (stereo not given)	2.24	9.14	0.782	2.8	1.23	2.58	1.21	2.65	1.66	6.12	2.27	4.65	1.2	2.98	1.69	3.25	1.64	3.32	–	–
CCCCCCc1cc2cc(-c3csc(/C=C/c4ccccc4)n3)c(=O)oc2cc1O	19	48.5	> 100	> 100	6.41	29.3	3.39	12.1	4.79	30.4	7.16	21.4	–	–	13.1	27.2	10	23	10.6	24.9
